One molecule from patent publication EP0536208B1, “1,2-DIHYDRO-3H-DIBENZISOQUINOLINE-1,3-DIONE ANTICANCER AGENTS” (RESEARCH CORPORATION TECHNOLOGIES, INC., priority 1990, dated 1992) can be followed below.

Test [1] deals with 2780 Human Ovarian Cancer. Briefly: In vitro tumor cell viability assay using MTT dye. Type of test: cell-based. To be noted: MTT dye reduction. As to the method: (§1) Compounds of the present invention were tested for their in vitro activity in tumor cells sensitive and resistant to standard anti-cancer agents. The tumor cell lines used in this protocol are 8226 human Myeloma^1; 8226/Dox-40^2, L-1210/Murine Leukemia, multidrug resistant L-210/^3, 2780 Human Ovarian Cancer and 2780/AD^4. Each of these resistant cell lines is known as a multidrug resistant or "MDR" cell line. These cell lines produce a 170,00 molecular weight membrane protein termed the P-glycoprotein which acts as an active drug efflux pump. Thus, once a cell produces the P-glycoprotein, it has the capability of pumping out of the cell a large variety of unrelated natural products. […] The protocol for measuring the effectiveness of compounds of the present invention is as follows: 2) In Vitro Tumor Cell Viability Assays Using MTT-Dye: Tumors are processed into a single cell suspension as described above. The cells are plated at a concentration of 3-5 X 10^4/1 mL well into plastic 96-well plates. […] Afterwards the medium containing the drug is removed, the cells are "washed" by centrifugation in fresh medium or phosphate-buffered saline (pH 7.4). A tetrazolium dye is then added (3,4,5-dimethylthiazol-2-yl)-2,5-diphenyl tetrazolium bromide (MTT). This dye forms a colored formazan product upon activation by mitochondrial reductases in viable cells. Typically, the formazan product is solubilized in acid-propanol or DMSO. The intensity of the color is proportional to viable cell numbers and this is quantitated by spectrophotometric absorbance ([…]) on a micro ELISA plate reader. Test results are calibrated in % control absorbance from untreated tumor cells (Mossman T: J Immunol Meth 65:55-63, 1983). Using the above procedure, Compound 1 was tested for its cytotoxic activity with respect to various tumor cell lines.
On the technique in general: Formazan colour is commonly taken as a measure of viable cells.

For a further test, the system named is L-1210/Murine Leukemia. The test is described as follows: In vitro tumor cell viability assay using MTT dye. It counts as cell-based. To be noted: Mus musculus. The procedure:
as §1

Another test deals with 8226 Human Myeloma. The test is described as follows: In vitro tumor cell viability assay using MTT dye. Type of test: cell-based. As to the method:
as §1

The subject of a further test is HT29p30. The test is described as follows: Activity against human colon tumor cells (MTT assay, 3 day drug exposure). It counts as cell-based. To be noted: cells plated 24 hr. prior to drug addition, read-out: Concentration for 50% inhibition of colony formation for human colon tumors. The procedure:
(§2) For example, the compounds of the present invention were evaluated for cytotoxic activities in cloned human colon carcinomas. The clonogenic assays were conducted in accordance with the procedure described hereinbelow: 1) Colony Forming Assays in Soft Agar: Fresh human or murine tumors are disaggregated into single cell suspensions using mechanical, hypoosmotic and/or enzymatic (trypsin) methods. The single cells (about 5 X 10^4-10^5) are plated in 35 mm plastic petri dishes onto a 1 ml "feeder layer" of 0.3% agar dissolved in growth medium containing 5-10% vol/vol of heat-inactivated fetal bovine serum, molten 0.3% agar and the antibiotics penicillin (100 u/mL) and streptomycin (100 ug/mL). Drug exposures can be performed for one hour or continuously (drugs added to final plating medium). Tumor cell colonies > 60 uM in size are counted by automated image analysis after 10-20 days of incubation in a humidified, 5-10% CO2-gassed environment maintained at 37°C. Inhibition of colony formation is calculated based on comparisons to control (untreated) plates wherein the growth of hundreds of colonies/plate is typical. (Salmon SE, et al., N Engl J Med 298(24):1321-1327, 1978).
as §1

The next test relates to SW80p105. Described as above. It counts as cell-based. To be noted: cells plated 24 hr. prior to drug addition, read-out: Concentration for 50% inhibition of colony formation for human colon tumors. As to the method: as §2, §1
In a further test the test system is Colon-38 Adenocarcinoma. Briefly: Tumor growth delay in mice, Colon-38 model. Conditions: 20mg implants in C57B/mice; 15 mg/kg; d3,6; intraperitoneally. Type of test: in vivo. The text has this:
Thus, in the lower level resistant cell lines, such as the ten-fold mitomycin C resistant L1210 and the tenfold adriamycin resistant 2780 ovarian cancer, Compound 1 maintained its complete activity as shown in Table II. The anti-tumor activity of compounds of the present invention in in vivo mouse murine models were studied. 3) Survival Studies In Tumor-Bearing Mice: 3.1 P-388 Leukemia Modles: One million P-388 leukemia cells originally obtained from American Type Culture Collection (Rockville, MD) are implanted into the peritoneum of adult DBA-2J male mice (Jackson Laboratories, Bar Harbor, ME). Twenty four hours later, drugs diluted in physiological saline are injected intraperitoneally at a volume of 0.1 mL/10 g body weight. The mice (10/group) are then followed for survival daily and compared to untreated tumor bearing mice. […] The perpendicular widths of the tumors are measured by caliper thrice weekly and converted to an estimated tumor mass according to the formula: ((1 X W)^2)/(2)= grams of tumor. [formula] wherein • W = width of tumor • l = length of tumor Tumor growth delay is calculated as the difference in days for tumors in treated mice to reach an estimated mass 750 mg or 1.5 g compared to that in untreated controls: Days to reach 750 mg (Treated - Control) = Days of Tumor Growth Delay [formula] […]

In the next test the test system is M5-76 Sarcoma. Briefly: Tumor growth delay in mice, M5-76 sarcoma model. Type of test: in vivo. Conditions: -76 Sarcoma (Southern Research Institute). As to the method: Corbett, T.H., et al., Cancer Chemo Rep., 5 (1975). Mammary 16-C Adenocarcinoma and M5-76 Sarcoma: Chunks of tumor (20-50 mg) are subcutaneously implanted into the flank of B6C3F1 female mice. Drugs (10-45 mg/kg) are dissolved in saline and injected intraperitoneally every four days for three times starting one day after tumor implantation. Tumors are measured bidimensionally as described above and tumor growth delay is calculated at times to reach 1.5 and 3.0 g of tumor mass.

pIC50: −log10 of the molar value. Converted amounts (≈) assume the structure as drawn. Read-outs that look alike come from different tables or passages of the source.

For `CN(C)CCN1C(=O)c2cccc3cc4ccccc4c(c23)C1=O` [Compound 1, 2-[2'-(dimethylamino)ethyl]-1,2-dihydro-3H-dibenz(deh)isoquinoline-1,3-dione], the IC50 in test [1] came out at 4000 ng/mL (≈ 12.6 µM); with L-1210/Murine Leukemia (144 h, Sensitive L1210, six day MTT assay, continuous drug exposure, read-out: Concentration for 50% inhibition of tumor cells), 2.5 ng/mL (≈ 0.00785 µM); in the test on L-1210/Murine Leukemia (L1210, 96 h, L-1210/Murine Leukemia, 4-day drug exposure, MTT dye reduction, read-out: Activity (IC50)) it was 3 ng/mL (≈ 0.00942 µM); in the test with L-1210/Murine Leukemia (L1210 Leukemia Cells Sensitive, continuous exposure, MTT dye assay, read-out: IC50 VALUES), 2.8 ng/mL (≈ 0.00879 µM); in the test with 8226 Human Myeloma (96 h, 8226 Human Myeloma, 4-day drug exposure, MTT dye reduction, read-out: Activity (IC50)), 11 ng/mL (≈ 0.0346 µM); with 8226 Human Myeloma (Homo sapiens, 8226 Myeloma Cells Sensitive, continuous exposure, MTT dye assay, read-out: IC50 VALUES), 10 ng/mL (≈ 0.0314 µM). In addition, the pIC50 with HT29p30 was 6.47; in the test on SW80p105 it was 6.82. In addition, the entries for the “Experimental Activity, Days of Tumor Growth Delay” value with Colon-38 Adenocarcinoma and with M5-76 Sarcoma were 6 days TT and 7 days, respectively.
